# Assay results: US20050032866A1, “The use of 5ht4 receptor antagonists in the prophylaxis or treatment of certain cardiovascular conditions” (priority 2000, published 2005)
# Where “and” joins values, the source holds several entries; their conditions need not be identical. Equal values may be shown once.
# How the values were obtained:
# [1] = biological target: 5-HT4A receptors (Homo sapiens, UniProt Q13639); conditions: cited from earlier work
# [2] = biological target: 5-HT3A receptors (Homo sapiens, UniProt P46098); conditions: cited from earlier work
# [3] = biological target: 5-HT4B receptor (Homo sapiens, UniProt Q13639); experiment: 5-HT4B receptor antagonism; type: biochemical
# [4] = plasma pharmacokinetics of SB 207266 on once daily oral dosing; type: in vivo, human
# [5] = preliminary studies of side-effects at human daily oral doses; type: in vivo; conditions: corresponds to about 1.6 to 1.7 mg/kg/day or more
# [6] = tested on: 5-HT-induced atrial arrhythmia in anesthetized Yucatan minipigs; experiment: 5-HT-induced atrial fibrillation / atrial remodelling after rapid atrial pacing in anesthetized Yucatan minipigs; type: in vivo, Yucatan minipig; conditions: for AERP (Example 2): sensitized pigs, predrug 90±3; for AF inducibility: 64±6% prior to treatment, 10 bursts of pacing; for mean duration of AF episodes: pre-drug 1.9±0.4
# Description: The antiarrhythmic efficacy of SB-207266 (0.3 and 1.0 mg/kg, intravenous) was evaluated on the inducibility of AF in a model of 5-HT-induced atrial arrhythmia in anesthetized Yucatan minipigs. […] The atrial effective refractory period (AERP) and AF inducibility were determined during programmed stimulation and burst electrical pacing.
# Animals. Male Yucatan minipigs (12-17 kg weight) were obtained from Charles River (Saint-Aubin les Elboeuf, France) and were maintained at rest over a 2-week acclimatision period prior to experiments.
# Surgical Preparation of Animals. The minipigs (Charles River, France) were fasted and premedicated (2 mg/kg diazepam+15 mg/kg ketamine, i.m.) before induction of anesthesia by isoflurane inhalation (5% for induction followed by 0.5 to 1.5% for technical preparation) in a mixture of 25% O2 and 75% N2O. The long term anesthesia was maintained with an i.v. infusion of sodium pentobarbital (12 mg/kg/h). A mechanical ventilator (Harvard pump 613) was used to provide artificial respiration during the left thoracotomy in order to keep arterial blood gases and pH within the normal limits (ABL 500 analyzer). Fluid filled catheters were placed in the femoral artery and vein to measure the arterial pressure (P23 ID transducer) and for drug administrations, respectively. Leads II, III and a precordial lead of electrocardiogram were placed for monitoring of standard ECG parameters. Two pairs of electrodes were hooked to the left atrial wall for subsequent stimulation (S8800 stimulator and SIU-5 unit) and for measurement of an atrial electrogram.
# Sensitization of the Atrial Tissue. The left atrial appendage was sensitized by rapid atrial pacing (200 ms cycle length over 3 hours) to generate an initial electrical remodelling of the tissue [A. Goette et al., 1996, Circulation, 94, 2968-2974]. […] The cellulose patch retains the 5-HT in contact with the tissue.
# Electrophysiologic Study. The atrial effective refractory period (AERP) was determined using a conventional single extrastimulus technique as previously described [A. Bril, B. Gout et al., J. Pharmacol. Exp. Ther., 1996, 276, 637-646.]. Briefly, a 8-stimulus train at a basic cycle length 20% shorter than the sinus rhythm was followed by a single premature extrastimulus (4 ms, 1.5 times threshold current) introduced at progressively shorter coupling intervals from the atrial pacing until no atrial response was obtained.
# After determination of AERP, the atrial fibrillation (AF) challenge was started. AF was induced following atrial pacing by a 2 sec-burst of stimulation (basic cycle length 20 ms cycle length, 2 ms duration, twice the diastolic threshold) introduced within the vulnerable window (AERP+10 ms). AF was defined as at least 1 sec of irregular electrical activity measured on atrial electrogram.
# Study Design and Dosing. After assessment of reproducible baseline responses of animals (3 successive AF challenges), the minipigs were randomly assigned to receive either sterile distilled water (vehicle group, n=7), or escalating doses of SB-207266 (0.3 and 1.0 mg/kg, n=7) given i.v. over a 10 min period 15 min before determination of AERP and subsequent AF challenge. SB-207266 was dissolved in sterile distilled water and adequate drug solutions were prepared every day. Treatment with vehicle represented a volume of distilled water similar to that used for drug solution (10 ml). Each dose of SB-207266 was administered at 45 min intervals to allow recovery of animals from previous burst pacing challenge.
# Measurements and Calculations. All parameters were monitored on a chart paper polyrecorder (TA-5000) and digital recording was performed throughout the protocol (DTR 1800). When measured, heart rate was calculated from the ECG and the mean arterial blood pressure was calculated from the pulse pressure. A corrected QT was determined according to the Bazett's formula (QTc=QT (ms)/RR (sec)^1/2). […]
# [7] = plasma concentration of SB-207266 in minipig (LC/MS/MS); type: in vivo, Yucatan minipig; conditions: 5 min after end of bolus
# Description: Evaluation of Plasma Concentration of SB-207266. For each AF challenge, blood samples were collected on EDTA (6%) 5 min after the end of the bolus administration of drug (time point 15 min, see asterisks in FIG. 4A) and centrifuged (1500×g, 10 min at 4° C.). The plasma samples were stored at −80° C. for subsequent analysis. Plasma samples were not collected in the vehicle group. The determination of plasma concentration of SB-207266 was performed by LC/MS/MS with a LLQ for this assay of 5 ng/ml in the pig.
# [8] = biological target: T1, 5-HT4 receptor (Cavia porcellus, UniProt O70528); experiment: guinea pig distal colon longitudinal muscle-myenteric plexus, 5-HT-evoked contraction; type: cell-based
# T1 construct: Longitudinal muscle-myenteric plexus preparations, approximately 3 cm long, are obtained from the distal colon region; from tissue; host or cells: guinea-pig distal colon longitudinal muscle-myenteric plexus
# Description: Male guinea-pigs, weighing 250-400 g are used.
# In some experiments, this tissue was dosed alternately with an approximately equi-effective concentration of the nicotine receptor stimulant, dimethylphenylpiperazinium (DMPP).
# [9] = tested on: 5-HT-induced atrial arrhythmia in anesthetized Yucatan minipigs; experiment: 5-HT-induced atrial fibrillation / atrial remodelling after rapid atrial pacing in anesthetized Yucatan minipigs; type: in vivo, Yucatan minipig; conditions: 5-HT alone, topical application for 3 hours, no pacing; control 110.2±1.9; not significant; n=6
# [10] = biological target: piglet hippocampal 5-HT4 receptors (Sus scrofa, UniProt Q6Q253); experiment: binding to piglet hippocampal 5-HT4 receptors, 125I-labelled SB-207710; conditions: piglet hippocampal membranes, n=4
# [11] = biological target: 5-HT1A (Homo sapiens, UniProt P08908); experiment: radioligand selectivity, 5-HT1A receptors; type: binding; conditions: read-out: pKi at 5-HT1A (converted)
# [12] = biological target: 5-HT1C (Homo sapiens, UniProt P28335); experiment: radioligand selectivity, 5-HT1C receptors; type: binding; conditions: read-out: pKi at 5-HT1C (converted)
# Chain of 5-HT1C (P28335 33-458, species assumed): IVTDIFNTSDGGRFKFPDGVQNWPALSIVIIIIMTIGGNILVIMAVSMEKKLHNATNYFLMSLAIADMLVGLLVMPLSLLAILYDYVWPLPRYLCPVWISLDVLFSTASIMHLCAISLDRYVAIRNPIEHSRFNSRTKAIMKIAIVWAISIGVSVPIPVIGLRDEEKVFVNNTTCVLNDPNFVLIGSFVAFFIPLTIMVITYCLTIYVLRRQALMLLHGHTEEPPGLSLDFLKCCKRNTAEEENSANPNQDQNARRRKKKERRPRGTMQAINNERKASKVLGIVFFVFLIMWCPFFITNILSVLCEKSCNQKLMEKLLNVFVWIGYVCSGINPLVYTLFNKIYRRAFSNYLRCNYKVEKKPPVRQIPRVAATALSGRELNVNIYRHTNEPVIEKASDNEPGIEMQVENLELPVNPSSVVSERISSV
# Chain of 5-HT4B receptor (Q13639 whole entry): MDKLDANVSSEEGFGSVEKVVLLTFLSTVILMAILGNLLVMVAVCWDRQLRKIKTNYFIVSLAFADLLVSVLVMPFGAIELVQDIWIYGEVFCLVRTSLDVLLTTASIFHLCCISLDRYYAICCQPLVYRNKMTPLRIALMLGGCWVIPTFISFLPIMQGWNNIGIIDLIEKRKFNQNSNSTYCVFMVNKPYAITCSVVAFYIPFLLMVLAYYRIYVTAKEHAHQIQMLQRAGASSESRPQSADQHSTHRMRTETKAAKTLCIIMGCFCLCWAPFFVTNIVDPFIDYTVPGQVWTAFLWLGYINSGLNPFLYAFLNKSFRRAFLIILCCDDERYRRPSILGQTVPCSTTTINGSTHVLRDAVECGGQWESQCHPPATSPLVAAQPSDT
# Chain of 5-HT4A receptors (Q13639 1-387 isoform Q13639-2): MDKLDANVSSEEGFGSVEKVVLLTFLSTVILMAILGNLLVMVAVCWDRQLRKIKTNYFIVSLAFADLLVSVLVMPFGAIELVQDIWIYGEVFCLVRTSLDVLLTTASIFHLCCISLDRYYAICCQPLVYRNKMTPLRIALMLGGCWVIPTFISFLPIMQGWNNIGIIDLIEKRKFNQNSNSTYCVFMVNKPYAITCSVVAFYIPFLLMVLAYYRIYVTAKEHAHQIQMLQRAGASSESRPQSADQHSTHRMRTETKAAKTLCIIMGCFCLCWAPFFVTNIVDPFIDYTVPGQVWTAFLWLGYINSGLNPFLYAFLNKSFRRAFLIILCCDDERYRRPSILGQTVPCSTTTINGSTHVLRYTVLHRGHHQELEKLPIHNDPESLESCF
# Chain of 5-HT3A receptors (P46098 24-478): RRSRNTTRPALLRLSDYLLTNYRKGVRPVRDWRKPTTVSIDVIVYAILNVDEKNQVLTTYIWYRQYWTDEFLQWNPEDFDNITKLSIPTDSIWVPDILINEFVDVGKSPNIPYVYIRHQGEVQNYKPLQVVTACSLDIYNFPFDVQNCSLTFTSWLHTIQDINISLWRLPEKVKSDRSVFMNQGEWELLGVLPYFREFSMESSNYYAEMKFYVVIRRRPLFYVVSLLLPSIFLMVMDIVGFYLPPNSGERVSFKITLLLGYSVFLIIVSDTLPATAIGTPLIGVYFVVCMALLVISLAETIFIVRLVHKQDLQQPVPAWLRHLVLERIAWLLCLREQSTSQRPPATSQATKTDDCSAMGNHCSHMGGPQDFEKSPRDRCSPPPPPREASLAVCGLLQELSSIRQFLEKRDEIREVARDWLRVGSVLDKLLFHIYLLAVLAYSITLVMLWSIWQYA
# T1 sequence (O70528 whole entry): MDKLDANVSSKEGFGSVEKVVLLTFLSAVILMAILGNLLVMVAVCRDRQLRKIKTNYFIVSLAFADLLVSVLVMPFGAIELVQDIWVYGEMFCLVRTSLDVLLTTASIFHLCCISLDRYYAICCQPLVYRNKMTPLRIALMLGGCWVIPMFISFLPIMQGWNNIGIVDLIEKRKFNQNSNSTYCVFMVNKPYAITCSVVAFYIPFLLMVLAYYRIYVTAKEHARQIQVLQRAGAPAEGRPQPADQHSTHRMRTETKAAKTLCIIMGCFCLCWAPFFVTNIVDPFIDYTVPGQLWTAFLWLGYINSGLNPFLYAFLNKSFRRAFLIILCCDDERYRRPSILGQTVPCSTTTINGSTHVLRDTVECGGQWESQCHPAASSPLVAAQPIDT
# Chain of 5-HT1A (P08908 whole entry, species assumed): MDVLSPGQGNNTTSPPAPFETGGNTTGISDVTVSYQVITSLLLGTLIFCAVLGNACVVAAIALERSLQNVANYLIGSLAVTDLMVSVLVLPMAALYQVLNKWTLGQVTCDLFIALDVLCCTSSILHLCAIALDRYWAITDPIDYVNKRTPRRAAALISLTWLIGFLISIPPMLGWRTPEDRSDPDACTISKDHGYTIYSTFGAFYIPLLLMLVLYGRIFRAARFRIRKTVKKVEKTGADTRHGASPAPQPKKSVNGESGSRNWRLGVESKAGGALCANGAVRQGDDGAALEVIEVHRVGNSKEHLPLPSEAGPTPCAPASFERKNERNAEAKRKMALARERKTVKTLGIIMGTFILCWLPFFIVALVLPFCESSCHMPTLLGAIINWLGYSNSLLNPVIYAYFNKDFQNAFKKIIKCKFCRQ
# Chain of piglet hippocampal 5-HT4 receptors (Q6Q253 1-402): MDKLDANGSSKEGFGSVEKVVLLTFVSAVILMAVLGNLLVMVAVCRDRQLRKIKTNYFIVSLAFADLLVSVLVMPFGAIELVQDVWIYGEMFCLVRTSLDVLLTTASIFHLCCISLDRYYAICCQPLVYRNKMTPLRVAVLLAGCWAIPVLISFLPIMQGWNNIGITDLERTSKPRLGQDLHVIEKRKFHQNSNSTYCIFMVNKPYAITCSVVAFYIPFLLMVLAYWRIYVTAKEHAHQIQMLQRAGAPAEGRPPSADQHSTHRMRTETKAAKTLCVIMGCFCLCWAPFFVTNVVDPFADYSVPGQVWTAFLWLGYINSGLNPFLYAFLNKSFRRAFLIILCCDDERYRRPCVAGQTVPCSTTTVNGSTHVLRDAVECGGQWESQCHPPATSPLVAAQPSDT
structure (smiles),measurement,setting,value
"Cc1noc(-c2ccccc2NC(=O)OCC2CCN(CCNS(C)(=O)=O)CC2)n1 [GR 138897, [1-[2-[(Methylsulphonyl)amino]ethyl]-4-piperidinyl]methyl[2-(3-methyl-1,2,4-oxadiazol-5-yl)phenyl]carbamate]",pKi at 5-HT4A receptors,[1],10.3
same,pKi at 5-HT3A receptors,[2],< 5.0
"CCCCN1CCC(CNC(=O)c2c3n(c4ccccc24)CCCO3)CC1 [SB 207266, N-[(1-^nbutyl-4-piperidinyl)methyl]-3,4-dihydro-2H-[1,3]oxazino[3,2-a]indole-10-carboxamide]",5-HT4B receptor antagonism,[3],5-HT4B antagonist and found to antagonise 5HT4B receptors
same,half-life,"[4]; human, plasma, oral, read-out: elimination half-life T½",20 to 24 h
same,time to reach steady-state plasma concentrations,[4]; once daily dosing,4 to 5 days
same,plasma concentration on day 4 as share of the steady-state plasma concentration,"[4]; once daily dosing, day 4",about 90%
same,extent of accumulation,[4]; once daily oral dosing,approximately 1.5 fold
same,human daily oral dose that might give rise to certain side-effects,[5],≥ 120 mg
same,AERP (Example 1),"[6]; 0.3 mg/kg i.v., after pacing and 5-HT, pre-drug 90.0±2.7, p<0.01 vs vehicle",102.3 ± 2.7 ms
same,AERP (Example 2),[6]; 0.3 mg/kg i.v.,102 ± 3 ms
same,AF inducibility,[6]; 0.3 mg/kg i.v.,46±11%
same,mean duration of AF episodes,[6]; 0.3 mg/kg i.v.,1.1 ± 0.4 s and 1.1 ± 0.2 s
same,decrease in AERP caused by rapid atrial pacing plus 5-HT application,[6]; 1.0 mg/kg i.v.,fully restored
same,AERP (Example 1),"[6]; 1.0 mg/kg i.v., after pacing and 5-HT, pre-drug 90.0±2.7, p<0.01 vs vehicle",110.0 ± 3.6 ms
same,AERP (Example 2),[6]; 1.0 mg/kg i.v.,110 ± 4 ms
same,AF inducibility,[6]; 1.0 mg/kg i.v.,30±9%
same,mean duration of AF episodes,[6]; 1.0 mg/kg i.v.,No further reduction
same,plasma level of SB-207266,"[7]; 0.3 mg/kg i.v., n=6",137.7 ± 15.2 ng/mL
same,plasma level of SB-207266,"[7]; 1.0 mg/kg i.v., n=5",562.3 ± 40.1 ng/mL
same,5-HT4 receptor antagonist activity in guinea pig colon,[8],particularly good activity
"COc1[nH]c2ccc(F)cc2c1C(=O)OCC1CCN(CCNS(C)(=O)=O)CC1 [GR 125487, [1-[2-[(Methylsulphonyl)amino]ethyl]-4-piperidinyl]methyl 5-fluoro-2-methoxy-1H-indole-3-carboxylate]",pKi at 5-HT4A receptors,[1],10.0
same,pKi at 5-HT3A receptors,[2],< 6.5
"NCCc1c[nH]c2ccc(O)cc12 [5-HT, reference compound]",AERP,"[6]; 5-HT applied after 3 h rapid atrial pacing, pacing alone 93.6±3.6",91.8 ± 3.3 ms
same,AERP (Example 1),"[6]; rapid atrial pacing and application of 5-HT, before vehicle or drug, from 111.6±2.6",90.9 ± 2.1 ms
same,AERP,[9],104.0 ± 6.5 ms
"CCCCN1CCC(COC(=O)c2cc(I)c(N)c3c2OCCO3)CC1 [SB-207710, (1-butyl-4-piperidyl)methyl 8-amino-7-iodo-1,4-benzodioxan-5-carboxylate]",Bmax of radioligand,[10],16±3 fmol/mg protein
same,Ki,[11],≥ 1000 nM
same,Ki,[12],≥ 1000 nM
